This is an account of results in PubChem BioAssay (NCI).

Holding throughout (test): NCI-60 cell line screen, 48 h
In assay [1] the test system is BT-549 breast.
Assay [2] has as its system KM12 colon.
Assay [3] concerns OVCAR-4 ovarian.
Assay [4] concerns PC-3 prostate.
Assay [5] concerns U251 CNS.
Assay [6] deals with EKVX NSCLC.
Assay [7] deals with SNB-19 CNS.
Assay [8] has as its system UACC-257 melanoma.
Assay [9] deals with CCRF-CEM leukemia.
The test system of assay [10] is RPMI-8226 leukemia.

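How tested: cells in 96-well plates exposed to compound for 48 hours at five concentrations. The concentration for 50% growth inhibition is given as GI50. The concentration for full growth arrest is given as TGI.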

As to `CC(=O)c1c(C)c2cnc(Nc3ccc(N4CCNCC4)cn3)nc2n(C2CCCC2)c1=O`, the GI50 in [1] is 13.6 µM; in assay [2], 0.623 µM; in assay [3], 11.2 µM; in assay [4] it was 1.74 µM; in [5], 4.25 µM; in [6] it was 12.5 µM. In addition, the GI50 in [7] is 11.7 µM; in [8], 5.51 µM; in [9], 0.707 µM; in assay [10], 0.268 µM. The TGI in assay [1] turned out to be 27.3 µM; in assay [2], 13.9 µM; in assay [3], 23.8 µM; in assay [4], 20.8 µM; in assay [5], 20.3 µM; in [6] it was 26.3 µM. Besides, the TGI in [7] is 25.4 µM; in assay [8], 20.9 µM; in assay [9], > 50.6 µM; in [10] it was 32.1 µM.

Consider `COC(=O)CC1=C(C)/C(=C/c2[nH]c(-c3ccc[nH]3)cc2OC)N=C1C`, for which the GI50 in assay [1] is 0.196 µM; in [2], 0.118 µM; in assay [3], 0.147 µM; in [4], 0.21 µM; in [5] it was 0.175 µM; in assay [6], 0.584 µM. Moreover, the GI50 is 1.35 µM in assay [7], 0.282 µM in assay [8], 0.0768 µM in [9] and 0.0449 µM in assay [10]. The TGI was 4.29 µM in assay [1]; 2.12 µM in assay [2]; 4.03 µM in assay [3]; 11.2 µM in [4]; 1.81 µM in [5]; 10.1 µM in assay [6]. For the same compound, the TGI in [7] is 14.2 µM; in [8] it was 1.12 µM; in assay [9] it was 5.34 µM; in assay [10], 0.499 µM.

Take `S=C(SSC(=S)N1CCCCC1)N1CCCCC1`: the GI50 in [1] is 16.6 µM; in assay [2], 13.9 µM; in assay [3], 9.65 µM; in assay [4] it was 12.3 µM; in assay [5] it was 12.2 µM; in [6] it was 28.4 µM. Moreover, the GI50 in assay [7] is 51 µM; in assay [8] it was 23.6 µM; in [9], 8.18 µM; in [10] it was 12.9 µM. The TGI was 44.6 µM in assay [1]; 29 µM in assay [2]; 48.9 µM in assay [3]; 51.4 µM in assay [4]; 45.2 µM in [5]; > 100 µM in assay [6]. In addition, the TGI in assay [7] was > 100 µM; in [8], 82.9 µM; in [9], 58.3 µM; in assay [10], 40.2 µM.

On to `C=C(C)C(=O)Nc1ccc(-c2c(-c3ccc(Oc4nccc(C)n4)c(F)c3)c3c(N)ncnc3n2C)cc1`, for which the GI50 was 2.08 µM in assay [1]; 3.87 µM in assay [2]; 2.84 µM in assay [3]; 6.78 µM in assay [4]; 6.21 µM in assay [5]; 3.43 µM in assay [6]. The GI50 in [7] is 10.7 µM; in assay [8], 9.27 µM; in assay [9], 5.25 µM; in [10], 2.74 µM. Further, the TGI amounted to 15.8 µM in assay [1]; 17 µM in assay [2]; 33.8 µM in [3]; 67.5 µM in [4]; 25 µM in assay [5]; 17.1 µM in assay [6]. The TGI was > 100 µM in assay [7], 23.6 µM in [8], > 100 µM in [9] and 17.3 µM in assay [10].

Turning to `N=C(CC(=O)Nc1ccccn1)c1ccccc1`, the TGI in [1], in [2], in [3], in [4], in assay [5] and in assay [6] was > 100 µM in each case. Also, the TGI in [7], in [8], in assay [9] and in assay [10] was > 100 µM in each case.

`CSc1nc2c(c(=O)n1C)C(c1ccccc1)C1=C(N2)/C(=C/c2ccccc2)CCC1` (stereo not given): the GI50 in assay [1] is 11.9 µM; in assay [2], 18.2 µM; in assay [3], 30.8 µM; in assay [4], 7.11 µM; in [5] it was 3.99 µM; in assay [6] it was 24.2 µM. Further, the GI50 in assay [7] was 22.4 µM; in assay [8], 6.63 µM; in assay [9] it was 4.62 µM; in assay [10] it was 5.31 µM. The TGI in [1] is > 100 µM; in assay [2] it was > 100 µM; in assay [3], > 100 µM; in assay [4], > 100 µM; in assay [5] it was 34.9 µM; in [6], > 100 µM. In addition, the TGI in assay [7], in [8], in [9] and in assay [10] was > 100 µM each time.

As for `Cc1cc(N2CCOCC2)nc(NCc2cc(Nc3ccnc4cc(Cl)ccc34)ccc2F)n1`, the GI50 in assay [1] is 1.72 µM; in assay [2], 1.69 µM; in assay [3], 1.32 µM; in assay [4], 1.8 µM; in [5], 1.63 µM; in assay [6], 1.52 µM. Further, the GI50 in assay [7] was 1.65 µM; in assay [8], 1.85 µM; in [9] it was 1.46 µM; in assay [10], 2.32 µM. The TGI in assay [1] is 3.53 µM; in assay [2], 3.21 µM; in [3], 3.69 µM; in assay [4], 3.48 µM; in [5], 3.12 µM; in assay [6], 3.91 µM. For the same compound, the TGI was found to be 3.45 µM in assay [7], 3.54 µM in assay [8], 4.79 µM in [9] and 5.96 µM in assay [10].

In the case of `COc1ccc2c(c1)C(=O)c1c-2n(CCCN(C)C)c(=O)c2cc([N+](=O)[O-])ccc12`, the GI50 is 0.0159 µM in assay [1]; 0.025 µM in assay [2]; 0.0515 µM in assay [3]; < 0.0278 µM in assay [4]; < 0.01 µM in assay [5]; 0.181 µM in [6]. Also, the GI50 in [7] was < 0.01 µM; in [8] it was 0.227 µM; in assay [9], < 0.01 µM; in [10] it was < 0.01 µM. Further, the TGI was 0.621 µM in assay [1]; 0.556 µM in [2]; 9.37 µM in assay [3]; 1.05 µM in [4]; 1.07 µM in assay [5]; 16.4 µM in assay [6]. The TGI is 7.93 µM in [7], 29.4 µM in assay [8], < 0.01 µM in [9] and 0.0707 µM in [10].

`COC(=O)c1cc2cc(/C=C3/SC(=S)N(N(C(C)=O)C(C)=O)C3=O)oc2n1Cc1ccccc1`: the GI50 in [1] is 24.2 µM; in assay [2], 27.8 µM; in [3], 38.2 µM; in assay [4], 37.8 µM; in assay [5], 12.8 µM; in assay [6], 31 µM. In addition, the GI50 was 27.3 µM in assay [7], 25 µM in assay [8], 32.3 µM in assay [9] and 29.4 µM in assay [10]. The TGI was 54.2 µM in assay [1]; > 100 µM in assay [2]; > 100 µM in assay [3]; > 100 µM in assay [4]; 30.8 µM in assay [5]; > 100 µM in assay [6]. In addition, the TGI is > 100 µM in [7], 74.9 µM in [8], > 100 µM in [9] and > 100 µM in [10].

On to `COc1ccc(-c2c(-c3ccc(C#N)c(F)c3)nc(N3CCC(N)CC3)n(C)c2=O)cc1F`, for which the GI50 in assay [1] is 14.6 µM; in assay [2], 20 µM; in [3], 29.3 µM; in [4], 12 µM; in assay [5], 14.6 µM; in assay [6], 15.5 µM. In addition, the GI50 in [7] is 31.6 µM; in [8], 13.6 µM; in assay [9], 17.6 µM; in [10] it was 18.4 µM. The TGI in assay [1] was 30.6 µM; in [2], 41.5 µM; in [3], > 100 µM; in [4], 30.6 µM; in assay [5], 32.8 µM; in [6], 52.8 µM. In addition, the TGI in [7] is > 100 µM; in assay [8], 29.2 µM; in assay [9], 53 µM; in assay [10], 49.1 µM.

On to `Oc1[nH]c2ccccc2c1C=Nc1ccc(-n2cncn2)cc1`, for which the GI50 in [1] was > 18.9 µM; in assay [2] it was 0.991 µM; in assay [3], > 18.9 µM; in assay [4], > 20.1 µM; in [5], > 21.6 µM; in assay [6], > 25 µM. Besides, the GI50 in assay [7] is > 25 µM; in assay [8], > 25 µM; in assay [9], 3.06 µM; in assay [10], 18.3 µM. In addition, the TGI in assay [1], in [2], in assay [3], in assay [4], in assay [5] and in [6] was > 25 µM throughout. Further, the TGI in [7], in assay [8], in [9] and in assay [10] was > 25 µM in each case.

As for `O=C1Cc2cc(CCN3CCNCC3)c(Cl)cc2N1`, the GI50 in [1] was 8.18 µM; in assay [2], 3.96 µM; in assay [3], 87.8 µM; in assay [4], 98.3 µM; in assay [5], 7.79 µM; in assay [6], 0.358 µM. In addition, the GI50 in assay [7] was 23.7 µM; in assay [8] it was 6.52 µM; in [9], 2.98 µM; in assay [10], 6.03 µM. Also, the TGI in assay [1], in [2], in assay [3], in [4], in [5] and in [6] was > 100 µM each time. Besides, the TGI in assay [7], in [8], in assay [9] and in assay [10] was > 100 µM each time.

On to `COc1ccc2c(c1)-c1c(c3cc(OC)ccc3n(CCN(C)C)c1=O)C2=O`, for which the GI50 in assay [1] was 5.84 µM; in [2], 0.304 µM; in [3], 0.799 µM; in assay [4] it was 1.49 µM; in assay [5], 0.443 µM; in [6] it was 1.37 µM. Moreover, the GI50 was 0.812 µM in assay [7], 1.3 µM in assay [8], 0.199 µM in assay [9] and 0.445 µM in assay [10]. The TGI in [1] came out at 12.9 µM; in assay [2], 1.28 µM; in [3], 4 µM; in assay [4] it was 8.88 µM; in [5] it was 6.77 µM; in [6], 10.2 µM. Also, the TGI in assay [7] came to 7.18 µM; in [8] it was 4.78 µM; in [9] it was 1.76 µM; in assay [10], 1.97 µM.

With `COc1ccc2c(c1)/C(=N/OC(C)=O)c1c-2c(OC)nc2ccccc12`, the GI50 in assay [1] is > 100 µM; in assay [2] it was > 100 µM; in [3], 58.3 µM; in assay [4] it was > 100 µM; in assay [5] it was > 100 µM; in [6], > 100 µM. Also, the GI50 in assay [7], in [8], in assay [9] and in assay [10] was > 100 µM each time. The TGI in assay [1], in assay [2], in assay [3], in assay [4], in assay [5] and in [6] was > 100 µM each time. In addition, the TGI in assay [7], in assay [8], in [9] and in assay [10] was > 100 µM each time.

Consider `Cc1ccc(-c2nc3sc(C)cn3c2/C=C2\C(=O)Nc3ccc(Cl)cc32)cc1`, for which the GI50 in [1] is 15.3 µM; in [2], 20.6 µM; in assay [3], 14.5 µM; in assay [4], 22.3 µM; in [5], 3.92 µM; in [6], 16 µM. Besides, the GI50 was 10.6 µM in assay [7], 16.6 µM in [8], 29.3 µM in [9] and 22.4 µM in assay [10]. Also, the TGI in assay [1] stood at 37.1 µM; in [2], 48.5 µM; in assay [3], 29.9 µM; in assay [4], 54.4 µM; in assay [5], 15.3 µM; in assay [6], 39.3 µM. Besides, the TGI in assay [7] was determined as 27.7 µM; in assay [8], 44.9 µM; in [9], 93.6 µM; in [10], 58.6 µM.
